# Reference: patent publication US12692491B2, “Nucleic acid complexes for screening barcoded compounds” (Children's Medical Center Corporation, priority 2015, dated 2026)
# Columns and labels:
# streptavidin [1] = molecular target: T1, streptavidin (Streptomyces avidinii, UniProt P22629); experiment: Desthiobiotin-streptavidin nanoswitch off-rate experiments; format: binding
# T1 construct: purchased Rockland
# Protocol: Desthiobiotin experiments were conducted in a similar manner as the biotin experiments with slight modifications. […] The off-rate of the desthiobiotin interaction is much faster than the typical 100 minute gel run time. Noting that once a loop opens in the gel, the reptation of the DNA prevents the loop from closing again, we ran samples for different amounts of time in the gel at 15 V/cm and 4° C. and quantified the fraction looped as a function of running time (Appendix A—Supplementary FIG. 5). In addition to allowing the determination of the desthiobiotin-streptavidin off rate, this gel also allowed us to determine the minimum amount of time required to achieve separation of the looped and unlooped bands in the gel. This enabled the use of the standard quenching technique for measuring desthiobiotin off-rates as described in the previous section; these gels were run at 15 V/cm for 10 minutes in pre-chilled electrophoresis buffer.
# streptavidin [2] = molecular target: T1, streptavidin; experiment: Biotin-streptavidin nanoswitch on-rate and off-rate experiments; format: binding
# Protocol: This construct used biotinylated versions of two oligonucleotides (var 4 and var 8), which were used in 4× molar excess to the scaffold, while all other oligonucleotides were used in a 10× molar excess. […] The final DNA construct was then diluted 100× from its original concentration of ~16 nM (to 160 pM), and mixed in equal volumes with streptavidin (Rockland) at 6 nM nominal concentration to form the loops, yielding final nominal concentrations of ~80 pM and 3 nM, respectively.
# The 25° C. experiment was performed at room temperature, the 4° C. experiment was performed in a cold room, and the 37° C. and 50° C. experiments were performed using a thermal cycler. […] Actual concentrations used to determine the on-rates were measured using spectrophotometry and a HABA assay to determine streptavidin activity.
# Off-rate measurements were performed by forming looped construct as described above, and letting the solution sit for at least 24 hours to allow the system to reach equilibrium. […] The 4° C. condition was done in a refrigerator, the 25° C. sample was done in a water bath, and the 37° C. and 50° C. temperatures were done in a thermal cycler. To run all the samples on a single gel, the quenching times were determined relative to the predetermined gel running time.
# We additionally used Eyring analysis to fit the temperature dependence of the kinetic rates: […]
# T1 sequence (P22629 25-183): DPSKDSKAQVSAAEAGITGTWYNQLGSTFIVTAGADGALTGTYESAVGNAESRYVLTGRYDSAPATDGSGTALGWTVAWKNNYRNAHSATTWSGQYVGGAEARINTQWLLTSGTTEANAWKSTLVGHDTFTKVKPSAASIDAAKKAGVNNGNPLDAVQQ
compound,measurement,setting,value
C[C@@H]1NC(=O)N[C@@H]1CCCCCC(=O)O [desthiobiotin],off-rate of streptavidin-desthiobiotin,streptavidin [1]; 4° C.,35.3 ± 7.5 min
same,off-rate of streptavidin-desthiobiotin,streptavidin [1]; room temperature,8.6 ± 1.2 min
O=C(O)CCCC[C@@H]1SC[C@@H]2NC(=O)N[C@@H]21 [biotin],on-rate,"streptavidin [2]; 150 mM salt, room temperature",4.0±0.7×10^6 M^−1s^−1
same,equilibrium enthalpy change ΔH,streptavidin [2]; calculated from on-rate and off-rate measurements,26.01 ± 0.05 kcal/mol
same,dissociation time,streptavidin [2]; physiological salt conditions and 25° C.,9.7 ± 0.4 days
